From patent US4742049A, “Semisynthetic erythromycin antibiotics” (Abbott Laboratories, priority 1986, dated 1988)
In brackets after ≈: the same amount, converted by molar mass. Read-outs that look alike come from different tables or passages of the source.

Key:
Type in all cases: cell-based
Haemophilus influenzae = assay: MIC against strains of Haemophilus influenzae
Method: (§1) Erythromycin A was used for this purpose.
(§2) After incubation, each disk is read.
In the manner of Example 23, the efficacy of compounds of this invention were tested against numerous strains of Haemophilus influenzae.

E. coli = assay: antimicrobial spectrum, agar dilution MIC; details: Escherichia coli, BHI agar, 20-24 hours
Strep. faecium = assay: antimicrobial spectrum, agar dilution MIC; details: Enterococcus faecium, ATCC8043
Method: (§3) Twelve petri dishes containing successive aqueous dilutions of the test compound mixed with 10 ml of sterilized Brain Heart Infusion agar (Difco 0418-01-5) are prepared. Each plate is inoculated with 1:100 (or 1:10 for slow-growing strains, primarily Micrococcus and Streptococcus) dilutions of up to 32 different microorganisms, using a Steers replicator block. The inoculated plates are incubated at 35°-37° C. for 20-24 hours. In addition, a control plate, using BHI agar containing no test compound, is prepared and incubated at the beginning and end of each test.
(§4) An additional plate containing a compound having known susceptibility patterns for the organisms being tested and belonging to the same antibiotic class as the test compound is also prepared and incubated as a further control, as well as to provide test-to-test comparability.
(§5) After incubation, each disk is read. The MIC is defined as the lowest concentration of drug yielding no growth, a slight haze, or sparsely isolated colonies on the inoculum spot as compared to the growth control.

Strep. pyogenes = assay: antimicrobial spectrum, agar dilution MIC; details: Streptococcus pyogenes, BHI agar, 20-24 hours
Method: as §3, §4, §5

Staph. aureus = assay: antimicrobial spectrum, agar dilution MIC; details: Staphylococcus aureus, BHI agar, 20-24 hours
Method: as §3, §4, §5

Staph. epidermidis = assay: antimicrobial spectrum, agar dilution MIC; details: Staphylococcus epidermidis
Method: as §3, §4, §5

Lactobacillus Casei = assay: antimicrobial spectrum, agar dilution MIC; details: Lacticaseibacillus casei, ATCC7469, strain ATCC 7469; BHI agar, 20-24 hours
Pseudomonas cepacia = assay: antimicrobial spectrum, agar dilution MIC; details: Burkholderia cepacia, strain 2961; BHI agar, 20-24 hours; read-out: MIC
Method: as §1, §2

Klebsiella pneumoniae = assay: antimicrobial spectrum, agar dilution MIC; details: strain 8045, BHI agar, 20-24 hours
Micrococcus luteus = assay: antimicrobial spectrum, agar dilution MIC; details: strain 9341, BHI agar, 20-24 hours
Strep. agalactiae = assay: antimicrobial spectrum, agar dilution MIC; details: Streptococcus agalactiae, strain CMX 508; BHI agar, 20-24 hours
Method: as §3, §4, §5

Strep. bovis = assay: antimicrobial spectrum, agar dilution MIC; details: Streptococcus equinus, strain A5169; BHI agar, 20-24 hours
Method: as §3, §4, §5

Pseudomonas aeruginosa = assay: antimicrobial spectrum, agar dilution MIC; details: Pseudomonas aeruginosa, BHI agar, 20-24 hours
Method: as §3, §4, §5

Providencia stuartii = assay: antimicrobial spectrum, agar dilution MIC; details: strain CMX 640, BHI agar, 20-24 hours
Method: as §3, §4, §5

Acinetobacter SP = assay: antimicrobial spectrum, agar dilution MIC; details: strain CMX 669, BHI agar, 20-24 hours
Ent. aerogenes = assay: antimicrobial spectrum, agar dilution MIC; details: Klebsiella aerogenes, ATCC13048, strain ATCC 13048; BHI agar, 20-24 hours; read-out: MIC

11-deoxy-6-O-methyl erythromycin A 11,12-(N-3-hydroxyethyl)cyclic carbamate [Example 16]
MIC (Haemophilus influenzae; strain 504): 1 µg/mL
MIC (Haemophilus influenzae; strain 519A): .5 µg/mL
MIC (Haemophilus influenzae; strain 566A): 1 µg/mL
MIC (Haemophilus influenzae; strain 588A): .5 µg/mL
MIC (Haemophilus influenzae; strain 632A): 1 µg/mL
MIC (Haemophilus influenzae; strain 667A): 1 µg/mL
MIC (Haemophilus influenzae; strain 747C): .5 µg/mL
MIC (Haemophilus influenzae; strain 751): 1 µg/mL
MIC (Haemophilus influenzae; strain 1177): 1 µg/mL
MIC (Haemophilus influenzae; strain 1435): .25 µg/mL
MIC (Haemophilus influenzae; strain 5036B): 1 µg/mL
MIC (Haemophilus influenzae; strain ATCC 9006): .5 µg/mL
MIC (Haemophilus influenzae; strain ATCC 9795): .5 µg/mL
MIC (Haemophilus influenzae; strain ATCC 10211): 1 µg/mL
MIC (Haemophilus influenzae; strain ATCC 19418): .5 µg/mL
MIC (Haemophilus influenzae; strain DILL AMP R): .5 µg/mL
MIC (Haemophilus influenzae; strain SOL AMP R): .5 µg/mL
MIC (Haemophilus influenzae; strain SPK AMP R): 1 µg/mL

CC[C@H]1OC(=O)[C@H](C)[C@@H](O[C@H]2C[C@@](C)(OC)[C@@H](O)[C@H](C)O2)[C@H](C)[C@@H](O[C@@H]2O[C@H](C)C[C@H](N(C)C)[C@H]2O)[C@](C)(OC)C[C@@H](C)C(=O)[C@H](C)[C@H]2N(CCCOCCOC)C(=O)O[C@]12C [Example 1, 11-deoxy-6-O-methylerythromycin A-11,12-(N-methoxyethoxypropyl)cyclic carbamate]
MIC (E. coli; strain JUHL): 16 µg/mL (≈ 18 µM)
MIC (Strep. faecium; strain ATCC 8043, BHI agar, 20-24 hours, read-out: MIC): 0.06 µg/mL (≈ 0.0675 µM)
MIC (Strep. pyogenes; strain 930, read-out: MIC): 64 µg/mL (≈ 72 µM)
MIC (Strep. pyogenes; strain EES61, read-out: MIC): 0.06 µg/mL (≈ 0.0675 µM)
MIC (Staph. aureus; ATCC6538P, strain ATCC 6538P, read-out: MIC): 0.06 µg/mL (≈ 0.0675 µM)
MIC (Staph. aureus; strain CMX 686B, read-out: MIC): 0.12 µg/mL (≈ 0.135 µM)
MIC (Staph. epidermidis; strain 3519, BHI agar, 20-24 hours, read-out: MIC): 0.06 µg/mL (≈ 0.0675 µM)

CC[C@H]1OC(=O)[C@H](C)[C@@H](O[C@H]2C[C@@](C)(OC)[C@@H](O)[C@H](C)O2)[C@H](C)[C@@H](O[C@@H]2O[C@H](C)C[C@H](N(C)C)[C@H]2O)[C@](C)(OC)C[C@@H](C)C(=O)[C@H](C)[C@H]2N(Cc3ccccc3)C(=O)O[C@]12C [Example 3, 11-deoxy-6-O-methyl erythromycin A 11,12-(N-benzyl)cyclic carbamate]
MIC (E. coli; strain DC-2): 25 µg/mL (≈ 29 µM)
MIC (E. coli; strain H560): 6.2 µg/mL (≈ 7.18 µM)
MIC (E. coli; strain JUHL): 25 µg/mL (≈ 29 µM)
MIC (E. coli; strain KNK 437): 25 µg/mL (≈ 29 µM)
MIC (E. coli; strain SS): 0.39 µg/mL (≈ 0.452 µM)
MIC (Lactobacillus Casei): 0.05 µg/mL (≈ 0.0579 µM)
MIC (Pseudomonas cepacia): 50 µg/mL (≈ 57.9 µM)
MIC (Klebsiella pneumoniae): 25 µg/mL (≈ 29 µM)
MIC (Micrococcus luteus): 0.05 µg/mL (≈ 0.0579 µM)
MIC (Strep. faecium): 0.1 µg/mL (≈ 0.116 µM)
MIC (Strep. pyogenes; strain 930): 100 µg/mL (≈ 116 µM)
MIC (Strep. pyogenes; strain EES61): 0.02 µg/mL (≈ 0.0232 µM)
MIC (Staph. aureus; ATCC6538P, strain ATCC 6538P): 0.39 µg/mL (≈ 0.452 µM)
MIC (Staph. aureus; strain 45): 0.1 µg/mL (≈ 0.116 µM)
MIC (Staph. aureus; strain 45 RAR 2): 0.39 µg/mL (≈ 0.452 µM)
MIC (Staph. aureus; strain A5177): 0.78 µg/mL (≈ 0.904 µM)
MIC (Staph. aureus; strain CMX 686B): 0.39 µg/mL (≈ 0.452 µM)
MIC (Strep. agalactiae): 0.02 µg/mL (≈ 0.0232 µM)
MIC (Strep. bovis): 0.02 µg/mL (≈ 0.0232 µM)
MIC (Pseudomonas aeruginosa; strain 5007): > 100 µg/mL
MIC (Pseudomonas aeruginosa; strain BMH10): 25 µg/mL (≈ 29 µM)
MIC (Pseudomonas aeruginosa; strain K799/61): 3.1 µg/mL (≈ 3.59 µM)
MIC (Pseudomonas aeruginosa; strain K799/WT): > 100 µg/mL
MIC (Staph. epidermidis): 0.2 µg/mL (≈ 0.232 µM)
MIC (Staph. epidermidis; strain 3519 RARI, BHI agar, 20-24 hours): 0.2 µg/mL (≈ 0.232 µM)
MIC (Providencia stuartii): > 100 µg/mL
MIC (Acinetobacter SP): 50 µg/mL (≈ 57.9 µM)
MIC (Ent. aerogenes): 50 µg/mL (≈ 57.9 µM)
